Measurements reported in PubChem BioAssay AID179 (DTP/NCI, 2004).
Active and inactive are the calls of the source.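 Rule for the calls: active = compounds giving half or more protection of infected cells from virus-caused growth loss, again on retest; inactive = the rest.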 Where a SMILES comes first, the peptide text is derived from it. Bridges are numbered along the chain shown (N, C = ends). [ ]: non-standard residue; d: D form. The star is where a group is joined. Orn = NCCC[CH](N)C(=O)O; OSu = O=C1CCC(=O)N1O*

System: CEM cells HIV-1 protection, formazan growth assay
Assay: NCI AIDS Antiviral Assay
Settings: for IC50: measured here: growth of uninfected CEM cells
Method in brief: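 Human CEM cells, uninfected and HIV-1-infected, received five drug concentrations, and growth was read by soluble formazan assay. Compounds giving at least 50% protection were retested; reproducible 100% protection defined confirmed active.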

Compound | EC50 [µM] | IC50 [µM] | outcome
CCOC(=O)CCNC(=O)c1ccccc1SC(=O)CCCC[n+]1ccccc1 | > 2 | 1.51 | –
O=S(=O)(O)SCCCNCCCNCCCSS(=O)(=O)O | > 200 | 13.8 | –
C=C(C)C(=O)O[C@H]1C/C(CO)=C/CCC(=C)C(OC(C)=O)[C@H]2OC(=O)C(=C)[C@H]12 (some centres not stated) | > 200 | 1.05 | –
CN1CCCCCC(=N\O)/C(=N/O)CCCCC1 | > 977 | > 977 | –
CC(=O)OCC12C(OC(C)=O)C[C@@H](C)C3(CC(c4ccoc4)OC3=O)C1CCC(OC(C)=O)C21CO1 (some centres not stated) | > 200 | > 200 | –
COC12OCCN(C)C1=CC(=O)C1(C)N=NCC12 (configuration not stated) | – | – | inactive
Cc1cc(S(=O)(=O)Nc2nc3cc(-c4ccc(Cl)cc4)sc3c(=O)n2N)c(S)cc1Cl | > 200 | 110 | –
CCc1cccc(C(C)(C)C)c1NC(=S)/N=C/C(C(=O)c1ccccc1)=C(\O)c1ccccc1 | > 200 | 51.3 | –
O=c1oc2ccc([N+](=O)[O-])cc2cc1-c1csc(-c2ccccc2)n1 | – | – | inactive
CC1=C2C(=CC(C)(CO)C2O)C(=O)C(C)(O)C12CC2 (configuration not stated) | – | – | inactive
COC(=O)c1c(N)n[nH]c1N | – | – | inactive
CCOP(=O)(OCC)C(C)(CC)NC(=O)C(C(F)(F)F)C(F)(F)F (configuration not stated) | > 200 | 105 | inactive
N/N=C1\C(=O)N(C2CCCCCC2)C(=O)C1C(=O)NC1CCCCCC1 (configuration not stated) | > 14.5 | > 14.5 | –
O=c1oc2ccccc2cc1Cl | > 145 | > 145 | –
COC1/C=C/OC2(C)Oc3c(C)c(O)c4c(O)c(c(C5SCCS5)c(O)c4c3C2=O)NC(=O)/C(C)=C\C=C\C(C)C(O)C(C)C(O)C(C)C(O)C1C (configuration not stated) | > 200 | 1 | –
O=C(OCC(Cl)(Cl)Cl)OCC(Cl)(Cl)Cl | > 200 | > 200 | –
COc1cc(C)cc2c(-c3c(O)cc(O)c4c3C[C@H](C)N[C@H]4C)cc(-c3cc(-c4c(O)cc(O)c5c4C[C@H](C)N[C@H]5C)c4cc(C)cc(OC)c4c3O)c(O)c12 | 14.1 | 95.5 | –
CC(=NNC(=S)Nc1ccc(C)cc1)c1cccc(C(C)=NNC(=S)Nc2ccc(C)cc2)n1 | > 200 | 15.1 | –
CN1CCN(Cc2cc3c(nn2)-c2ccccc2C3=O)CC1 | > 200 | 110 | –
Cc1ccc(=O)n(Cc2ccccc2)n1 | > 1260 | 912 | –
COc1cc2ccccc2oc1=O | > 40.7 | > 40.7 | –

Compound | EC50 [µM] | IC50 [µM] | outcome
COC(=O)c1cc(CC(C)C)c2c(c1)[nH]c1ccccc12 | > 35.5 | > 35.5 | –
CCOC(=O)C1C(C(C)C)C2(C#N)C(=N)OC1(C)C2(C#N)C#N (configuration not stated) | > 200 | 49 | –
CCCCN(CCCC)CC(C(=O)Nc1ccccc1)/C(C)=N\NC(=O)c1ccncc1 (configuration not stated) | > 51.3 | 30.2 | –
NS(=O)(=O)c1ccc(NC(=S)/N=C\c2c(O)[nH]c(=O)[nH]c2=O)cc1 | > 200 | > 200 | –
CC(=O)OC(C)(C)CCC(=O)[C@](C)(O)[C@H]1[C@H](O)C[C@@]2(C)[C@@H]3CCc4c(cc(OC5OC(CO)C(O)C(O)C5O)c(O)c4C)C3(C)C(=O)C[C@]12C (some centres not stated) | > 200 | > 200 | –
O=c1ccc2cc3ccoc3c(OCCCCCCBr)c2o1 | > 75.9 | 30.9 | –
CCC(C)C(NC(=O)C(CCCN=C(N)N)NC(=O)C(CC(=O)O)NC(=O)C(Cc1ccc(O)cc1)NC(=O)C(N)CC(C)C)C(=O)NC(C(=O)NC(CC(C)C)C(=O)NC(CCCN=C(N)N)C(=O)NC(Cc1ccc(O)cc1)C(=O)O)C(C)CC (configuration not stated) (H-LYDRIILRY-OH; configuration not given here) | > 10.2 | > 10.2 | –
O=C(CC12C3C4C1C1C2C3C41CC(=O)NO)NO (configuration not stated) | > 251 | 49 | –
Cc1cn(COCCCSc2ccccc2)c(=O)[nH]c1=O | 21.9 | 166 | –
COc1ccc(-c2c(C3=NCCCN3)nnn2-c2ccc(Cl)cc2)cc1 | 14.1 | 85.1 | –
Nc1c(S(=O)(=O)O)cc(Nc2ccc(S(=O)(=O)O)c(Nc3nc(Cl)nc(Cl)n3)c2)c2c1C(=O)c1ccccc1C2=O | > 200 | > 200 | –
O=C(O)c1cc(Cc2cc(C(c3ccc(O)c(C(=O)O)c3)c3ccc(O)c(C(=O)O)c3)cc(C(=O)O)c2O)ccc1O | 95.5 | 195 | –
O=Nc1c2n[nH]c1CCCCCCCCC2 | > 309 | 44.7 | –
OC1COC(c2ccccc2)OC1C1OC(c2ccccc2)OC2COC(c3ccccc3)OC21 (configuration not stated) | > 100 | > 100 | –
COc1cc(OC)c2c(O)c3c(cc2c1)CC(C)(C)CC3=O | > 2 | 1.38 | –
O=C1NN(C2=NNC3(C(=O)N2)c2ccccc2-c2ccccc23)C(c2ccccc2)=N/C1=C/c1ccc(O)cc1 | > 100 | 66.1 | –
c1ccc(C2(c3ccccc3)SCCCS2)cc1 | > 19.1 | > 19.1 | –
CC(C)(C)OC(=O)N1N=CCC1c1ccccc1 (configuration not stated) | > 200 | > 200 | –
C=C(Cl)c1c(OC)cccc1OCc1ccccc1 | > 200 | 97.7 | –
CC(=O)SSC12CC3CC(CC(C3)C1)C2 | > 200 | > 200 | –
CSc1nc[nH]c1C(N)=S | > 200 | > 200 | –

Compound | EC50 [µM] | IC50 [µM] | outcome
CCOC(=O)c1cc2c(OC(C)=O)ccc(OC(C)=O)c2s1 | > 2 | 0.0794 | –
CC(=O)N1CCN(C=S)CC1 | > 1450 | > 1450 | –
Cc1ccc(S(=O)(=O)NC(=O)OC23COCN2COC3)cc1 | > 759 | 132 | –
Nc1ccc(Cl)cc1C(=O)N1CCN(c2ccc([N+](=O)[O-])cn2)CC1 | > 132 | 27.5 | –
COc1c(OC(C)=O)cc2c(OC(C)=O)c1CC(C)CC(OC)C(O)C(C)/C=C(\C)C(OC(N)=O)C(OC)/C=C\C=C(/C)C(=O)N2 (configuration not stated) | > 195 | 3.02 | –
NC(=O)C1CCCNC(=O)CC(NC(=O)C(N)Cc2ccc(O)cc2)C(=O)NC(Cc2ccccc2)C(=O)N1 (configuration not stated) (H-YDF[Orn]-NH2; lactam 2-4; configuration not given here) | > 100 | > 100 | –
C[Si](C)(C)/C=C/CCNC(C#N)c1ccccc1 (configuration not stated) | > 20.4 | > 20.4 | –
CN(C)N=Nc1ccc(/C=C2/C=Cc3ccccc32)cc1 | > 49 | > 49 | –
CC(CCc1nc2ccccc2[nH]1)C1CCC2C3C(C[C@H](O)[C@]12C)[C@@]1(C)CC[C@@H](O)C[C@H]1C[C@H]3O (some centres not stated) | > 50.1 | 10 | –
Cc1c(Cc2ccccc2)n(COCCCO)c(=O)[nH]c1=O | 138 | > 200 | –
CCCCCCCCCCCc1c(O)c(O)cc2nc3cc(Cl)c(Cl)cc3nc12 | > 16.6 | 5.37 | –
CCN(CC)CC(=O)N1CCc2c([nH]c3ccccc23)C1c1cccnc1 (configuration not stated) | > 138 | > 138 | –
COc1c(N2CCCCC2)c2c(=O)c3ccccc3oc2c2c3ccccc3n(C)c12 | 170 | 195 | –
CSc1c(C(=O)Nc2ccc(Cl)cc2)c(N)nn1-c1ccccc1 | > 200 | > 200 | –
NCCSSCCCCSSCCN | > 200 | 12.3 | –
O=C(c1ccncc1)n1nc(-c2ccccc2)c(N=Nc2ccc([N+](=O)[O-])cc2)c1-c1ccccc1 | > 39.8 | > 39.8 | –
Cc1ccc(C)c(NC(=O)CC/C(=N\NC(=O)C(=O)NN)C(C)C(=O)c2ccc(O)cc2)c1 (configuration not stated) | – | – | inactive
COc1ccc2c(O)c(S(=O)(=O)c3ccc(C)cc3)c(=O)oc2c1 | > 200 | 132 | –
CCN(CC)c1ccc2cc(C(=O)NCc3ccccc3)c(=N)oc2c1 | > 200 | 11 | –
O=C1/C(=C\c2cccc(Oc3ccccc3)c2)SC(c2ccccc2)N1c1ccccc1 (configuration not stated) | > 20 | 0.0933 | –
O=C(N/N=C\c1cccc(/C=N\NC(=O)Nc2ccc(N=Nc3ccccc3)cc2)n1)Nc1ccc(N=Nc2ccccc2)cc1 | > 200 | 39.8 | –

Compound | EC50 [µM] | IC50 [µM] | outcome
O=C1O/C(=C(\Br)c2ccc([N+](=O)[O-])cc2)c2ccccc21 | > 200 | 16.6 | –
CCOP(=O)(OCC)/C(C#N)=C\c1ccsc1 | > 912 | > 912 | –
O=C(O)C12C3CCC(CC3)C1(C(=O)O)C1CCC2C1 (configuration not stated) | > 200 | > 200 | –
Cc1cc(NC(=O)c2ccc(N)cc2)ccc1N=Nc1ccc2c(O)c(N=Nc3ccc(S(=O)(=O)O)cc3C)c(S(=O)(=O)O)cc2c1 | 34.7 | > 200 | –
CP(=O)(CCSc1ccccc1)c1ccccc1 (configuration not stated) | > 661 | > 661 | –
O=C1CCCC/C1=C1/SC(=Nc2ccccc2)C(=Nc2ccccc2)N1c1ccccc1 | > 200 | > 200 | –
O=C1CSC(c2c[nH]c3ccccc23)N1c1ccc(Cl)cc1 (configuration not stated) | > 110 | > 110 | –
CCOC(=O)CC1C(O)C(=O)N(C)C1c1ccccc1 (configuration not stated) | – | – | inactive
COC(=O)c1[nH]c(=S)[nH]c(=O)c1-c1ccc(Cl)cc1 | 251 | 603 | –
O=C(O)CCCC[P+](c1ccccc1)(c1ccccc1)c1ccccc1 | > 200 | > 200 | –
CCC1(COC(NC(=O)c2ccccc2)(C(F)(F)F)C(F)(F)F)COC1 | > 200 | 115 | –
O=[N+]([O-])c1ccc(-n2nc3ccc4c(no[n+]4[O-])c3[n+]2[O-])c([N+](=O)[O-])c1 | > 20 | 0.407 | –
NCCCCC(NC(=O)C(N)Cc1ccc(O)cc1)C(=O)NC(CCCCN)C(=O)NC(CCCCN)C(=O)ON1C(=O)CCC1=O (configuration not stated) (H-YKKK-OSu; configuration not given here) | 162 | > 200 | –
CNC(=O)Oc1ccc(Cl)cc1SSc1cc(Cl)ccc1OC(=O)NC | > 200 | 8.32 | –
NC(=O)c1ccc(S(=O)(=NS(=O)(=O)c2ccccc2)c2ccc(C(N)=O)cc2)cc1 | > 295 | > 295 | –
Nc1ccccc1C(=O)C(Br)C(Br)c1ccc2c(c1)OCO2 (configuration not stated) | > 43.7 | 23.4 | –
Cc1nc(-n2nc(-c3ccccc3)cc2-c2ccccc2)sc1C(=O)/C=C/c1ccc([N+](=O)[O-])cc1 | > 38 | 30.9 | –
Cc1nnc2sc(/C=C/c3ccccc3)nn12 | – | > 200 | inactive
